Assay results taken from patent US20090318468A1, “PYRAZOLE COMPOUNDS 436” (AstraZeneca AB, priority 2008, published 2009).
Values joined by “and” are separate entries in the source; they are usually repeats but may differ in a detail not shown here. Equal entries are not always repeated.

What was measured:
[1] = Clearance (pharmacokinetics) in rats; format: in vivo; conditions: rat, whole blood, male rats, dose 0.927 mg/kg (2 umol/kg); for Vd: read-out: Vss
Experimental: For the rat dose of 0.927 mg/kg (2 umol/kg), the compounds were formulated in 20% DMA:80% sorensens buffer pH 5 at 1 umol/ml. Each formulation was dosed (2 mL/kg) to four male rats (250-300 g) which had free access to food. Blood samples were taken via the tail vein at 5 and 20 minutes, and 1 and 4 hours post dose from 2 rats, and at 10 and 40 minutes, and 2 and 6 hours from the other 2 rats. Terminal samples were taken at 12 hours from the first pair of rats and 24 hours from the second pair. The blood samples were diluted 1:1 with water prior to analysis.
A set of 10 calibration standards covering the concentration range (0.001 umol/L to 10 umol/L) were prepared by spiking blank matrix (1:1 blood:water). The samples and standards were extracted using a solid phase extraction plate, blown down under nitrogen, and then reconstituted in methanol:water (20:80). The samples were analysed using LC-MSMS and the results obtained were used to determine the area under the curve from time 0 to infinity [AUC0-inf (ug.hr/ml)], clearance [Cl (ml/min/kg)] and the steady state volume distribution [Vss (L/kg)] for each compound.

FGFR4 [2] = target: T1, FGFR4 (Homo sapiens, UniProt P22455); assay: Cell FGFR4 (ECHO) Assay: inhibition of transiently expressed FGFR4 phosphorylation in Cos-1 cells; format: cell-based; set-up: expressed in transfected cells; host or cells: Cos-1; conditions: Cos-1 cells transiently expressing FGFR4, 1 hour incubation; read-out: IC50 (inhibition of phosphorylated FGFR4)
T1 sequence (P22455 22-802): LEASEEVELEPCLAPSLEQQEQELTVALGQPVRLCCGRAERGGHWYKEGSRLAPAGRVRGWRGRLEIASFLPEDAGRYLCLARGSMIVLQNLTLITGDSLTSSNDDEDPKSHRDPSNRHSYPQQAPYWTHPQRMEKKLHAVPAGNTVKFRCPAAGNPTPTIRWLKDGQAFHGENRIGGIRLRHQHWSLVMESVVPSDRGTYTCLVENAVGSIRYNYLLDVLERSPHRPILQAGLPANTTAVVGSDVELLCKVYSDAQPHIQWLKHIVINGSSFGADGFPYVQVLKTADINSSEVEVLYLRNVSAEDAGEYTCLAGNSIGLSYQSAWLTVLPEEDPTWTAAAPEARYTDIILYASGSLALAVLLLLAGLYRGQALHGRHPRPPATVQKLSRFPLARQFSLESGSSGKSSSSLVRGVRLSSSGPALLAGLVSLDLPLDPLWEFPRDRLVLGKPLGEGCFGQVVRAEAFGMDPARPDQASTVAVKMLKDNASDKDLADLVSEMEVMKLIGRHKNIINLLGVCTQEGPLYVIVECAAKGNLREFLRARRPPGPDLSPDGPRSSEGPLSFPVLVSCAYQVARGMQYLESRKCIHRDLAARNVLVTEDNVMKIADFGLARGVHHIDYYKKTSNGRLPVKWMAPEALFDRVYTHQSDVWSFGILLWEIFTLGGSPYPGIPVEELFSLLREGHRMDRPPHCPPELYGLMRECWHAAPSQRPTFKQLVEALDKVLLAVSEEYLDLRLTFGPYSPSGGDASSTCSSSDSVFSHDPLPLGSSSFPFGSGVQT
Source text: Cell based inhibition of transiently expressed FGFR4 phosphorylation via use of ECHO technology (measured using phospho-specific primary and fluorescent secondary antibodies).
This assay is designed to detect inhibitors of transiently expressed FGFR4 phosphorylation by antibody staining of fixed cells detected using ArrayScan technology. Cos-1 cells were routinely passaged in DMEM (Gibco BRL, 41966) plus 3% foetal calf serum (FCS), 1% L-glutamine (Gibco BRL, 25030) to a confluence of 80%. To undertake the assay, Cos-1 cells were harvested at 90-95% confluence for cell transfection. For each 96-well plate, 24 μL Lipofectamine 2000 was added to 809 μL OptiMEM and incubated at room temperature for 5 minutes. For each 96 well plate, 20 μg 3′ FLAG tagged FGFR4/pcDNA3.1 (MSD 6273) was diluted with OptiMEM to a total volume of 833 μL. Equal volumes of DNA and Lipofectamine 2000 were combined (DNA:Lipid=1:1.2 ratio) and incubated at room temperature for 20 minutes.
The harvested Cos-1 cells are counted using a coulter counter and diluted further with 1% FCS/DMEM to 1.2×10^5 cells/mL. For each 96-well, 8.33 mL cells were required. […]
Media was removed from the wells using vacuum aspiration; cells were fixed by adding 50 μL of 100% methanol to each well and incubated at room temperature for 20 minutes. […] The plates were read on an Arrayscan (Cellomics). […]

FGFR4 [3] = target: T1, FGFR4; assay: FGFR4 Kinase Assay - Caliper; format: biochemical; conditions: 30 μM ATP, separate test occasions listed, read-out: IC50 (inhibition of FGFR4 kinase activity)
Experimental: FGFR4 Kinase Assay—Caliper
To determine inhibition of FGFR4 activity, kinase assays were conducted using Caliper technology. FGFR4 enzyme was used (8 μM, Cat. No. PR4380B, Invitrogen). Kinase activity assays were performed in Greiner 384-well low volume plates, with a total reaction volume of 12 μL per well. The final concentration of FGFR4 active kinase in each reaction well was 25 nM. The substrate for each assay was a custom peptide with fluorescent tag (13 amino acids in length, 5FAM-[…]—CONH2) the sequence of which was specific for FGFR4 kinase.
Compounds were serially diluted in 5% (v/v) DMSO, before being added to assay plates. The Enzyme (at 25 nM (final)) and Substrate (at 1.5 μM (final)) were added separately to the compound plates, in reaction buffer (comprising: 100 mM HEPES—pH 7.5, 0.004% Triton, 1 mM DTT (final), 10 mM MnCl2 (final), 30 μM ATP (final)) resulting in a final DMSO concentration in the reaction mix of 0.8%.
Assay plates were incubated at RT for 2 hours, before the reaction was stopped with the addition of buffer (comprising: 100 mM HEPES—pH7.5, 0.033% Brij-35, 0.22% Caliper Coating Reagent #3, 40 mM EDTA, 5% DMSO). Stopped assay plates were then read using the Caliper LabChip™ LC3000 (which uses microfludics to measure a shift in mobility between fluorescent labelled peptide and the FGFR4 kinase—phosphorylated form of this peptide). […]

Row | Compound | AUC(0-inf) [1] | clearance [1] | Vd [1] | IC50 (FGFR4 [2]) | IC50 (FGFR4 [3])
1 | COc1cc(CCc2cc(NC(=O)c3ccc(N4CCN(C)[C@@H](C)C4)cc3)[nH]n2)cc(OC)c1 [Example 1a, (S)—N-(3-(3,5-Dimethoxyphenethyl)-1H-pyrazol-5-yl)-4-(3,4-dimethylpiperazin-1-yl)benzamide] | 254 ng·h/mL | 60.9 mL/min/kg | 2.58 L/kg |  | 
2 | COc1cc(CCc2cc(NC(=O)c3ccc(N4CCN(C)[C@H](C)C4)cc3)[nH]n2)cc(OC)c1 [Example 1b, (R)—N-(3-(3,5-Dimethoxyphenethyl)-1H-pyrazol-5-yl)-4-(3,4-dimethylpiperazin-1-yl)benzamide] | 473 ng·h/mL | 32.7 mL/min/kg | 1.74 L/kg | 29 nM and 33 nM and 45 nM and 28 nM | 22 nM and 16 nM (2×)
